Reference: patent US20110124614A1, “Methods And Compositions For The Treatment of Autoimmune Disorders” (priority 2008, published 2011)
Marks after values point to notes of the source that are not given here.

Tests used:
[1] = system: splenocytes of PD-1KO EAE mice; assay: Ex vivo T cell proliferation to mMOG-35-55, PD-1KO mice; assay type: in vivo, mouse; settings: G-1 treatment, FIG. 6B
Procedure: (§1) Splenocytes and lymph node cells were harvested ex-vivo from G-1 and E2 implanted mice and cultured in a 96-well flat bottom tissue culture plate at 4×10^5 cells/well in stimulation medium in the presence of APC, irradiated (2500 rad) syngenic thymocytes at a ration of 1:10 (T:APCs) wither with or without mMog 35-55 peptide at varying concentrations. The cells were incubated for 3 days at 37° C. in 7% CO2 and pulsed with 0.5 μCi of [^3H] thymidine (Perkin-Elmer, Boston, Mass.) for the final 18 h of incubation. The cells were harvested onto glass fiber filters, and incorporated radioactivity was measured by a liquid scintillation counter. The cpm values (mean±SD) were calculated from triplicate wells. Stimulation index (SI) was calculated by dividing the experimental cpm by the control cpm.
Splenocytes from placebo and G-1 treatment groups were evaluated for T cell proliferation and cytokine secretion in 48 h supernatants.

[2] = system: splenocytes and lymph node cells of WT EAE mice; assay: Ex vivo T cell proliferation to mMOG-35-55, WT mice; assay type: in vivo, mouse; settings: for ex vivo T cell proliferation responses to mMog-35-55 peptide: G-1 and E2 implanted WT mice, FIG. 2C
Procedure: as §1

[3] = system: cytokine secretion by splenocytes of PD-1KO immunized mice; assay: Cytokine secretion of mMog-35-55 stimulated splenocytes, Luminex, PD-1KO mice; assay type: in vivo, mouse; settings: G-1 treated PD-1KO mice
Procedure: PD-1KO (Dr. […] One week after implantation experimental autoimmune encephalomyelitis (EAE) was induced. Splenocytes were harvested from […] cell proliferation and cytokine secretion in 48 h supernatants. (*P<0.05, or **P<0.01 compared to placebo). Lymph node and spleen cells were cultured at 4×10^6 cells/well in a 24 well flat-bottom culture plate in stimulation medium (RPMI 1640, 1% sodium pyruvate, 1% L-glutamine, 0.4% 2-β-ME, 10% FBS) with 25 μg/ml mMog-35-55 peptide for 48H. Supernatants were then harvested and stored at -80° C. until tested for cytokines. Culture supernatants were assessed for cytokine levels using a Luminex Bio-Plex mouse cytokine assay kit (BioRad, Hercules, Calif.) following the manufacturer's instructions. The following cytokines were determined in a single assay in three separate experiments: IL-1βIFN-γ, TNF-α, IL-2, IL-4, IL-5. IL-6, IL-12, IL-13, and IL-17. […] This cytokine profile was drastically altered in G-1 treated PD-1Ko mice. The decrease of Il-17 and increase of Il-6, Il-10 and IFN-γ production were abolished, whereas the reduction in IL-2 and Il-4 remained. Thus PD-1 was required for […] downregulation of IL-17 but not Il-2 and Il-4, and upregulation of IL-6, Il10 and IFN-γ.

[4] = system: uteri; assay: Uterine weight (estrogenic effect); design: species or system mouse; settings: G-1 treatment in vivo, FIG. 2E
Text: Treatment with G-1 in viva lacked the “estrogenic effects” of E2.

[5] = system: PD-1 expression in CD4^+FoxP3^+ or CD4^+FoxP3^− T cells; assay: PD-1 expression in CD4+FoxP3+/FoxP3- T cells by flow cytometry, E2-treated WT vs knockout mice (Example V); assay type: in vivo, mouse
Procedure: Age matched WT C57BL/6 from the animal service at National Cancer Institute (Frederick, Md.), GPR30KO prepared as in Example 1, or PDD-KO mice (Dr. […] Splenocytes or lymph node cells from GPR30KO mice were obtained at the end of the clinical experiment in FIG. 1A and stained for FoxP3 and PD-1, as well as cellular markers for T cells and antigen presenting cells (APC). For membrane staining, 1 million cells were stained at 4° C. in the dark with appropriate Ab dilutions in staining buffer (PBS containing 0.5% BSA and 0.02% sodium azide), Intracellular staining for FoxP3 was performed following the protocol recommended by eBioscience (San Diego, Calif.). Briefly, 4 million cells were surface stained following standard procedures. After washing, the cells were fixed overnight and washed twice with 0.5 ml of permeabilization buffer. […] Flow cytometry data were collected on LSRII and FACSCalibur flow cytometers (BD Bioscience, Franklin Lakes, N.J.), and analyzed using FlowJo software (Tree Star, Ashland, Oreg.). […] The expression levels of PD-1 were analyzed by gating on CD4^+FoxP3^+ or CD4^+FoxP3^− T cells from WT or GPR30 mice. The bar charts in FIG. 5A show the average mean fluorescence intensity (MFI) of Pd-1 in CD4^+FoxP3^+ or CD4^+FoxP3^− from all mice in each group. […]

[6] = system: experimental autoimmune encephalomyelitis (EAE) in WT C57BL/6 female mice; assay: EAE clinical scoring, E2 pellets, WT mice (Example II); assay type: in vivo, mouse
[7] = system: EAE in GPR30KO female mice; assay: EAE clinical scoring, E2 pellets, GPR30KO mice (Example II); assay type: in vivo, mouse; settings: E2 treated GPR30KO mice, 2.5 mg/60 day pellet
[8] = system: CNS infiltration and demyelination in GPR30KO EAE mice; assay: Spinal cord histology (H&E, LFB-PAS), GPR30KO EAE mice; assay type: in vivo, mouse; settings: E2-treated GPR30-KO mice, FIG. 1B
Text: Spinal cords were dissected out for histology. Intact spinal columns were removed and dissected after fixation in 4% paraformaldehyde, dehydrated and embedding in paraffin. To examine neuroinflammation, the sections were stained with hematoxylin and eosin (H&E). To examine demyelination, the sections were stained with Luxon fast blue plus periodic acid Schiff (LFB-PAS).

[9] = Serum E2 level by radioimmunoassay in E2-implanted mice; assay type: in vivo, mouse; settings: mice with 2.5 mg/60 day release E2 pellets; RIA; FIG. 3
Procedure: Serum levels of E2 were determined by radioimmunoassay (RIA) after Sephadex LH-20 column chromatography (GE Healthcare Life Sciences, Piscataway, N.J.). Representative animals were bled by cardiac puncture, and the blood was allowed to clot at 4° C. overnight. The samples were centrifuged, and the sera were collected and stored at −80° C. until hormone analysis was performed. All samples were analyzed in a single assay for each hormone.

[10] = WT, 2.5 mg/60 day release E2 pellet, 25 days

Compound: CC(=O)c1ccc2c(c1)C1C=CCC1C(c1cc3c(cc1Br)OCO3)N2 (stereo not shown) [G-1]
- T cell proliferation to mMog-35-55 [1]: did not significantly change
- ex vivo T cell proliferation responses to mMog-35-55 peptide [2]: neither G-1 nor E2 treatment significantly altered
- decrease of Il-17 production [3]: abolished
- increase of IFN-γ production [3]: abolished
- increase of Il-6 production [3]: abolished
- increase of Il-10 production [3]: abolished
- reduction in IL-2 [3]: remained
- reduction in Il-4 [3]: remained
- weight of uteri [4]: did not significantly change

Compound: C[C@]12CC[C@@H]3c4ccc(O)cc4CC[C@H]3[C@@H]1CC[C@@H]2O [E2, 17β estradiol]
- T-cell responses to MOG peptide ([2]; E2 treatment, WT mice, FIG. 1C): similarly reduced
- ex vivo T cell proliferation responses to mMog-35-55 peptide [2]: neither G-1 nor E2 treatment significantly altered
- PD-1 expression in non-regulatory CD4^+FoxP3^− T cells ([5]; WT or PD-1KO mice (so in the source)): did not induce a significant shift
- E2 induced upregulation of PD-1 expression in CD4+FoxP3+ cells ([5]; splenocytes from PD-1KO mice (so in the source), FIG. 5A): abolished
- clinical EAE (in words) ([6]; E2-treated WT mice, 2.5 mg/60 day pellet): no sign of the disease
- Incidence ([6]; WT, 2.5 mg/60 day release E2 pellet one week before immunization, concluded 25 days after immunization): 0/10
- CDI [6, 10]: 0**
- Daily [6, 10]: 0**
- Mortality [6, 10]: 0/10
- Peak ([6]; WT, 2.5 mg/60 day release E2 pellet, 25 days, EAE score scale 0-6): 0**
- clinical EAE (in words) [7]: delayed onset and were only partially protected from EAE
- cellular infiltration and demyelination in CNS [8]: visibly present, but at a reduced level
- serum E2 levels [9]: 1.5 to 2 ng/mL
